Patent US20130109721A1, “FAAH Inhibitors” (Ironwood Pharmaceuticals, Inc., priority 2009, published 2013)

Target: T1, FAAH (Homo sapiens, UniProt O00519)
T1 construct: FAAH activity was assayed in the respective homogenates described herein (Rat brain, Mouse brain or Human brain); tissue Analytical Biological Services (ABS), Inc; host or cells: human brain cortex membrane homogenate
T1 sequence (O00519 1-579): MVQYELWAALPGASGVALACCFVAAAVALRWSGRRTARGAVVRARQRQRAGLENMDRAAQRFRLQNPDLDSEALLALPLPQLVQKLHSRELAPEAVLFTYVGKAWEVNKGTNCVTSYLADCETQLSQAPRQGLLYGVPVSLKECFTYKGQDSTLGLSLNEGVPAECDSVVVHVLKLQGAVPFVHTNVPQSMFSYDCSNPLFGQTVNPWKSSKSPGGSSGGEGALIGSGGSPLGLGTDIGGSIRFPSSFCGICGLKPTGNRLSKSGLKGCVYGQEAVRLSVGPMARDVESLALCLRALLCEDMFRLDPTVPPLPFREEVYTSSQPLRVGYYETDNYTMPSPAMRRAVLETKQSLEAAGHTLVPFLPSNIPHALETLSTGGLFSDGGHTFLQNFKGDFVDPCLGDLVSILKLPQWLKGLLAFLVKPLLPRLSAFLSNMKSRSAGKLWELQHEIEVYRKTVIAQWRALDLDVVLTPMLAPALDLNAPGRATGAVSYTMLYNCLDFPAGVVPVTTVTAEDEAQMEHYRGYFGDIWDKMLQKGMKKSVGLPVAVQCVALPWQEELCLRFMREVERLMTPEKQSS
Assay: FAAH inhibition, human brain membrane homogenate assay
Format: biochemical
Conditions: average; FAAH extracted from human brain homogenate; read-out: Human brain FAAH Extract IC50
Experimental: About 10 g of frozen normal human brain cortex tissue was obtained (e.g., from Analytical Biological Services (ABS), Inc. (Wilmington, Del.)). The brain tissue was thawed and transferred to a large ceramic mortar on ice. 50 mL of ice-cold “homogenization buffer” (20 mM HEPES buffer, pH 7.0, with 1 mM MgCl2) was added to the mortar and the tissue was homogenized with a pestle. The homogenate was centrifuged at 36,500 g for 20 minutes at 4° C. The supernatants were discarded and the pellets were re-suspended in homogenization buffer and centrifuged as before. The supernatants were again discarded and the pellets were re-suspended in 30 mL homogenization buffer and incubated in a 37° C. water bath for 20 minutes. The homogenate was then centrifuged as before. The supernatant was discarded and the membrane pellets were re-suspended in 30 mL “resuspension buffer” (50 mM Tris-HCl buffer, pH 7.4, containing 1 mM EDTA and 3 mM MgCl2). A Bradford Protein assay was performed to determine protein concentration. The protein was aliquotted into screw cap Cryo tubes each containing ˜200 μL, flash frozen in liquid nitrogen and stored at −80° C. until used for the assay.
FAAH activity was assayed in the respective homogenates described herein (Rat brain, Mouse brain or Human brain) for certain exemplary substrate compounds using a modification of the method of Omeir et al. (1995 Life Sci 56:1999) and Fowler et al. (1997 J. Pharmacol Exp Ther 283:729). For assay of FAAH activity in rat brain membrane (RBM) homogenates, RBM homogenates (7 μg protein in 20 μL final volume of 10 mM Tris pH 6.5) were mixed with 180 μL of a mixture of the following: 2.0 μM unlabelled anandamide, 0.03 μCi radio labeled anandamide [ethanolamine 1-^3H] (40-60 Cis/mmol, product number ART-626, American Radiolabeled Chemicals, St. Louis, Mo.), 1 mg/mL Bovine Serum Albumin (fatty acid-free BSA, electrophoresis grade, Sigma, St. Louis, Mo.), 10 mM Tris-HCl (pH 6.5), and 1 mM EDTA in the presence and absence of test compounds (vehicle was DMSO at a final concentration of 1%) and incubated for 10 minutes at 37° C. Samples were placed on ice to terminate the reactions.
^3H-ethanolamine product and un-reacted ^3H-anandamide substrate were then separated either: (1) by using chloroform/methanol extraction or (2) by passing the reaction mixture through a glass fiber filter containing activated charcoal. Samples were extracted with chloroform/methanol by adding 0.4 mL of chloroform/methanol (1:1 v/v), vigorously mixing the samples, and separating the aqueous and organic phases by centrifugation. Radioactivity (corresponding to FAAH-catalyzed breakdown of ^3H-anandamide) found in aliquots (0.2 mL) of the aqueous phase was determined by liquid scintillation counting with quench correction. IC50 values were determined as described by Jonsson et al. (2001 Br. J. Pharmacol. 133:1263). Alternatively, reactions were purified using a modification of the solid-phase extraction method described by Wilson et al (2003 Anal. Biochem. 318:270). This method was modified as follows: after reactions were incubated at 37° C. for 10 minutes and chilled on ice, the reaction mixtures were acidified by adding 10 μL of sodium phosphate solution [0.5M (pH 2.0)]. Next, 90 μL aliquots of the acidified reaction mixtures were applied to activated charcoal (that had been previously washed with methanol as described by Wilson et al. (supra)) containing 80 μL of water on top of a glass fiber filter, centrifuged, and the radioactivity in the eluate was counted as described previously by Wilson et al. (supra).
Table 1 provides activity data for certain compounds tested for inhibition of FAAH using the FAAH rat, mouse and human brain homogenate assays. […]

Structure (SMILES) | IC50 [µM]
COc1cc(NC(=O)C(=O)c2cc(C)n(Cc3ccc(Cl)cc3)c2C)ccn1 [Compound I-01, 2-(1-(4-chlorobenzyl)-2,5-dimethyl-1H-pyrrol-3-yl)-N-(2-methoxypyridin-4-yl)-2-oxoacetamide] | 0.542
COc1cc(NC(=O)C(=O)c2c(C)n(Cc3ccc(Cl)cc3)c3sc(Cl)cc23)ccn1 [Compound I-03, 2-(2-chloro-6-(4-chlorobenzyl)-5-methyl-6H-thieno[2,3-b]pyrrol-4-yl)-N-(2-methoxypyridin-4-yl)-2-oxoacetamide] | 0.094
COc1cc(NC(=O)C(=O)c2cc(C)n(Cc3ccc(F)cc3)c2C)ccn1 [Compound I-17, 2-(1-(4-fluorobenzyl)-2,5-dimethyl-1H-pyrrol-3-yl)-N-(2-methoxypyridin-4-yl)-2-oxoacetamide] | 1.22
COc1cc(NC(=O)C(=O)c2cc(-c3ccccc3)n(Cc3ccc(Cl)cc3)c2C)ccn1 [Compound I-27, 2-(1-(4-chlorobenzyl)-2-methyl-5-phenyl-1H-pyrrol-3-yl)-N-(2-methoxypyridin-4-yl)-2-oxoacetamide] | > 50
Cc1cc(C(=O)C(=O)Nc2ccnc(Cl)c2)c(C)n1Cc1ccc(Cl)cc1 [Compound I-28, 2-(1-(4-chlorobenzyl)-2,5-dimethyl-1H-pyrrol-3-yl)-N-(2-chloropyridin-4-yl)-2-oxoacetamide] | 0.897
Cc1cc(C(=O)C(=O)Nc2ccncc2)c(C)n1Cc1ccc(Cl)cc1 [Compound I-30, 2-(1-(4-chlorobenzyl)-2,5-dimethyl-1H-pyrrol-3-yl)-2-oxo-N-(pyridin-4-yl)acetamide] | 3.4
Cc1cc(C(=O)C(=O)Nc2cccnc2)c(C)n1Cc1ccc(Cl)cc1 [Compound I-31, 2-(1-(4-chlorobenzyl)-2,5-dimethyl-1H-pyrrol-3-yl)-2-oxo-N-(pyridin-3-yl)acetamide] | 3.2

The remaining lines, values ahead:

IC50 [µM] | Structure (SMILES)
0.097 | Cc1c(C(=O)C(=O)Nc2ccncc2)c2cc(Cl)sc2n1Cc1ccc(Cl)cc1 [Compound I-02, 2-(2-chloro-6-(4-chlorobenzyl)-5-methyl-6H-thieno[2,3-b]pyrrol-4-yl)-2-oxo-N-(pyridin-4-yl)acetamide]
0.051 | Cc1cc2c(s1)c(C(=O)C(=O)Nc1ccncc1)c(C)n2Cc1ccc(Cl)cc1 [Compound I-04, 2-(4-(4-chlorobenzyl)-2,5-dimethyl-4H-thieno[3,2-b]pyrrol-6-yl)-2-oxo-N-(pyridin-4-yl)acetamide]
0.004 | COc1cc(NC(=O)C(=O)c2c(C)n(Cc3ccc(Cl)cc3)c3cc(C)sc23)ccn1 [Compound I-05, 2-(4-(4-chlorobenzyl)-2,5-dimethyl-4H-thieno[3,2-b]pyrrol-6-yl)-N-(2-methoxypyridin-4-yl)-2-oxoacetamide]
1.5 | Cc1c(C(=O)C(=O)Nc2cccc(Cl)c2)c2sccc2n1Cc1ccc(Cl)cc1 [Compound I-06, 2-(4-(4-chlorobenzyl)-5-methyl-4H-thieno[3,2-b]pyrrol-6-yl)-N-(3-chlorophenyl)-2-oxoacetamide]
0.018 | COc1cc(NC(=O)C(=O)c2c(C)n(Cc3ccc(Cl)cc3)c3ccsc23)ccn1 [Compound I-07, 2-(4-(4-chlorobenzyl)-5-methyl-4H-thieno[3,2-b]pyrrol-6-yl)-N-(2-methoxypyridin-4-yl)-2-oxoacetamide]
> 5 | Cc1cc(C(=O)C(=O)Nc2ccccc2)c(C)n1Cc1ccc(Cl)cc1 [Compound I-32, 2-(1-(4-chlorobenzyl)-2,5-dimethyl-1H-pyrrol-3-yl)-2-oxo-N-phenylacetamide]
